# From PubChem BioAssay AID179 (DTP/NCI, 2004)
# Values joined by “and” are separate entries in the source; they are usually repeats but may differ in a detail not shown here. Identical values can stand only once. Active and inactive are the calls of the source.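 How the source made its calls: active means compounds giving half or more protection of infected cells from virus-caused growth loss, again on retest; inactive means the rest.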 Where a SMILES comes first, the peptide text is derived from it. [ ]: non-standard residue; d: D form. Phe(4-NO2) = N[CH](Cc1ccc([N+](=O)[O-])cc1)C(=O)O
# Test system: CEM cells HIV-1 protection, formazan growth assay
# Assay: NCI AIDS Antiviral Assay
# Conditions: for IC50: measured here: growth of uninfected CEM cells
# Summary of the method: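 Protection of CEM cells against HIV-1 was scored from cell growth (soluble formazan) across five concentrations, with parallel uninfected cells. Lack of protection may reflect toxicity.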
Structure (SMILES),EC50 [µM],IC50,outcome
C=C[C@@H]1c2ccccc2C=C[C@]1(CCC1(C)OCCO1)C1=NC(COC)[C@H](c2ccccc2)O1 (stereo not given in full),> 8.13,> 8.13 µM,
O=[N+]([O-])C(=C1Nc2ccccc2N1)C(Cl)=C(Cl)Cl,> 200,105 µM,
COc1ccc2c(c1)c[n+](C)c1c3cc(OC)c(OC)cc3ccc21,> 151,1.32 µM and 1.45 µM and 1.35 µM,
O=C1NC(=S)N/C1=C\c1cc2c(=O)c3ccccc3sc2s1,75.9,81.3 µM,
C[C@]12CCC[C@](C)(C(=O)O)[C@@H]1CC[C@@]13C[C@@H](CC[C@@H]12)[C@@H](C(=O)O)C3,> 200,> 200 µM,
Cc1cn(C2CC(N=[N+]=[N-])C(COC(=O)C3CCC(=O)N3)O2)c(=O)[nH]c1=O (stereo not given),,49 µM,active
Cc1nn(C(=O)c2ccc(Cl)cc2)c2c1C(c1ccccc1O)SC(N)=N2 (stereo not given),> 200,107 µM,
CCOC(=O)C(C/C(C)=C/c1ccccc1)C(=O)OCC,> 200,182 µM,
C=CC(C)(C)n1cc(C2=C(O)C(=O)C(c3cn(C(C)(C)C=C)c4ccccc34)=C(OC(C)=O)C2=O)c2ccccc21,> 20,1.07 µM,
Cc1cccc(C(C)O)n1 (stereo not given),> 200,> 200 µM,
O=C(O)C1C(c2ccccc2)C=CC(c2ccccc2)C1C(=O)O (stereo not given),,,inactive
CCCCCCCCCCCCCCCCOP(=O)(O)OCC(N)C(=O)O (stereo not given),> 200,18.6 µM,
NC(N)=NS(=O)(=O)c1ccc(NC(=O)c2cccc3cc4ccccc4nc23)cc1,> 53.7,16.2 µM,
COC(=O)NNC(c1ccc(Cl)cc1)c1ccc(Cl)cc1,> 200,30.9 µM,
Cc1ccc(S(=O)(=O)N/N=C2/CC3CCC4CC2CC34)cc1 (stereo not given),> 200,79.4 µM,
CC(=O)N=C1N(/C=C2\C(=O)Oc3ccccc3C2=O)C(=O)/C(=C/c2ccco2)N1C,> 200,69.2 µM,
Cc1nn(C)c(N)c1N=O,> 200,> 200 µM,
CC(NC(=O)C(Cc1ccc([N+](=O)[O-])cc1)NC(=O)C(N)CCCCN)C(=O)NC(Cc1ccc([N+](=O)[O-])cc1)C(N)=O (stereo not given) (H-K[Phe(4-NO2)]A[Phe(4-NO2)]-NH2; configuration not given here),> 200,> 200 µM,
N#CC(C#N)=C(C(C#N)C#N)C(C#N)C#N,,,inactive
CCCCCCCCCCNC(C)=O,> 200,85.1 µM,
NC(=O)NNc1nc(-c2ccccc2)cs1,> 200,87.1 µM,
CC1=NN(C(=O)c2ccccc2O)C(=O)/C1=C/c1ccco1,> 87.1,0.603 µM,

Structure (SMILES),EC50 [µM],IC50,outcome
Cc1ccc(CC2(C(=O)O)Cc3ccc(C)cc3C2)cc1 (stereo not given),> 200,57.5 µM,
C=C1CN(S(=O)(=O)c2ccc(C)cc2)CCCN(CCC)CCCN(S(=O)(=O)c2ccc(C)cc2)C1,> 200,2.95 µM,
CCOC(=O)C1=NN(c2ccccc2)C(=O)/C1=C\n1ccc(=O)[nH]c1=S,,,inactive
CCCCCCCCCCCCCCCC(=O)Nc1ccn(C2CCC(COP(=O)(O)O)O2)c(=O)n1 (stereo not given),1.58,50.1 µM,
CCC1CCN=C(NS(=O)(=O)c2cc(C)c(Cl)cc2S)N1 (stereo not given),> 200,39.8 µM,
CC(=O)OC1CCC2(COS(=O)(=O)c3ccc(C)cc3)C(=CCC3C2CCC2(C)C(C(C)CCCC(C)C)CCC32)C1 (stereo not given),> 200,> 200 µM,
CC(C)(C)N/N=C(\C(=O)Nc1ccc([N+](=O)[O-])cc1[N+](=O)[O-])c1nc2ccc([N+](=O)[O-])cc2[nH]c1=O,> 14.5,> 14.5 µM,
COc1ccc(C2C(=O)c3ccc(OC)cc3OC2c2ccccc2)cc1 (stereo not given),> 200,87.1 µM,
COc1ccc([C@H]2Oc3cc(O)cc(O)c3C(=O)[C@@H]2[C@H]2C(=O)c3c(O)cc(OC)cc3O[C@@H]2c2ccc(OC)cc2)cc1,> 200,110 µM,
CC1=CCC23C(C1)OC(Br)(C=CC2(C)O)C3(C)C (stereo not given),,,inactive
Cn1c(=O)oc2cc(C(=O)CN3CCN(Cc4ccc5c(c4)OCO5)CC3)c(Cl)cc21,> 200,178 µM,
O=c1[nH]c2ccc([N+](=O)[O-])cc2nc1/C(=N/Nc1ccccc1)C(O)c1ccco1 (stereo not given),> 437,275 µM,
Cc1c(-c2coc(-c3ccc(Cl)cc3)n2)c(=O)n(-c2ccccc2)n1C,> 51.3,> 51.3 µM,
Clc1ccc(OC2CCO2)cc1Cl (stereo not given),> 162,145 µM,
CCN(CC)c1ccc2cc(C(=O)Nc3ccccc3)c(=N)oc2c1,> 100,> 100 µM,
CCN(CC)C(=S)SS(=O)(=O)c1ccc(Cl)cc1,> 200,12 µM,
C#CCNC(=O)NC(CCCNC(=O)OCc1ccccc1)C(=O)OCc1ccccc1 (stereo not given),> 83.2,> 83.2 µM,
CCN(CC)CC(=O)Nc1c(C)ccc(N)c1C,> 200,> 200 µM,
N#CCCC1(CCC#N)CCc2ccccc2C1=O,> 200,> 200 µM,
COc1cc2c(cc1OC)C(CCl)c1cc(OC)c(OC)cc1C=C2,> 100,> 100 µM,
Cc1c(/C=N/NC(=S)Nc2ccc(Cl)cc2)c(=O)n(-c2ccccc2)n1C,> 200,> 200 µM,
OCC1OC(n2cnc(C3=NCC(O)CN3)n2)C(O)C1O (stereo not given),,,inactive

Structure (SMILES),EC50 [µM],IC50,outcome
Cc1ccc(N(C(=O)Nc2ccccc2)C2=NCC(C)S2)cc1C (stereo not given),> 200,> 200 µM,
CN1C(=O)CC(Sc2ccccc2)c2ccccc21 (stereo not given),> 200,36.3 µM,
N#CC(NCCc1ccccc1)c1ccccc1 (stereo not given),,,inactive
Nc1cc(Cl)c(S(=O)(=O)O)cc1Cl,> 200,> 200 µM,
C=CCC(O)C1=CC(=O)c2c(O)ccc(O)c2C1=O (stereo not given),,,inactive
O=C(NC1C=Nc2ccc(Cl)cc2NC1=O)c1ccc(Cl)cc1 (stereo not given),> 200,> 200 µM,
COc1ccc2c(C)cc(N/N=C(\C)C=O)nc2c1,> 200,4.07 µM,
COCc1cn(C2CCC(CO)O2)c(=O)[nH]c1=O (stereo not given),> 490,269 µM,
COc1c(Cl)cc(C(=CCC(=O)O)c2cc(Cl)c(OC)c(C(=O)O)c2)cc1C(=O)O,30.2,> 200 µM,
COc1cccc([C@@]2(O)c3c(ccc(O)c3OC)[C@H]2OC)c1OC,> 15.8,> 15.8 µM,
COc1c(OCc2ccccc2)c(OCc2ccccc2)cc(CO)c1-c1c(CO)cc(OCc2ccccc2)c(OCc2ccccc2)c1OC,> 2.88,> 2.88 µM,
CC(=O)OC12c3ccccc3C1CCCCCC21OCCCO1 (stereo not given),> 200,> 200 µM,
c1ccc(-c2nc(-c3ccccc3)n3c(-c4ccccc4)nnc3n2)cc1,> 14.8,> 14.8 µM,
CCOC(=O)C(Cc1ccccc1)NC(=O)c1ccc(N=NN(C)C)cc1 (stereo not given),> 51.3,> 51.3 µM,
O=C(O)C#CC(=O)O,> 1580,> 1580 µM,
Cc1nn2c(=O)n(-c3cccc(-n4nnc5c(-c6ccccc6)c(C)nn5c4=O)c3C)nnc2c1-c1ccccc1,,,inactive
c1csc(C(NC2=NCCO2)C2CC2)c1 (stereo not given),> 200,166 µM,
CSc1nn(C)cc2ncnc1-2,> 200,> 200 µM,
COc1ccc(/C=C/CN(C)CCc2ccccc2)cc1OC,,,inactive
CC(C)=CCCC1(C)C2COC(=O)C21 (stereo not given),> 200,70.8 µM and 15.1 µM,
Cc1cc(Cl)ccc1NC(=O)CC1SC(=NC(=O)c2ccccc2Cl)NC1=O (stereo not given),> 16.6,> 16.6 µM,
CCCN1C(=O)CN(S(=O)(=O)c2ccc(Cl)cc2)C1=O,> 200,> 200 µM,

Structure (SMILES),EC50 [µM],IC50,outcome
Cl/C=C\C[N+]12CN3CN(CN(C3)C1)C2,> 200,93.3 µM,
CC(C)(C)C1CCC2c3c([nH]c4ccccc34)C3C(=O)N(c4cccc(Cl)c4)C(=O)C3C2C1 (stereo not given),> 200,11 µM,
CC(C)CC(NC=O)C(=O)NC(Cc1ccccc1)NC(=O)CNC(=O)C(C)NC(=O)OC(C)(C)C (stereo not given),> 200,> 200 µM,
O=S(=O)(F)c1ccc(C[P+](c2ccccc2)(c2ccccc2)c2ccccc2)cc1Cl,> 200,97.7 µM,
Cn1c(=O)c2c(=O)cc(N)[nH]c2n(C)c1=O,,,inactive
N[C@H]1c2ccsc2C(=O)[C@H]1O,> 1,> 1 µM,
CON(C(=O)OC(C)(C)C)c1ccccc1,61.7,> 200 µM,
O=c1c2c(sc3ccccc13)CCC2,> 151,> 151 µM,
COc1ccc(C23OC2Oc2cc(OC4CCCCO4)ccc2C3=O)cc1 (stereo not given),> 70.8,45.7 µM,
CN1CCCN2CCN(C)CCCN(CC1)CC2,> 977,> 977 µM,
O=S(=O)(CC#CCO)c1c2ccccc2cc2ccccc12,,,inactive
O=C1O/C(=C(/Cl)c2c3ccccc3cc3ccccc23)c2ccccc21,> 200,10.2 µM,
OCC1OC(n2nc(-c3ccccc3)nc2-c2cnccn2)C(O)C(O)C1O (stereo not given),> 200,> 200 µM,
CC(=O)OC[C@]12CCC3[C@@]4(C)CCCC(C)(C)C4CC[C@@]3(C)C1CC(C1=CC(=O)OC1O)O2 (stereo not given in full),> 200,0.759 µM,
CCN(CC)C(=S)SS(=O)(=O)c1ccc(N)cc1,> 200,56.2 µM,
COc1ccc(-c2c3c(nc4nc(SCC(=O)c5ccc(Br)cc5)nc(N)c24)CCCC3)cc1OC,> 200,151 µM,
O=C1CN(c2cccc(C(F)(F)F)c2)C(=O)CN1CCN1CC(=O)N(c2cccc(C(F)(F)F)c2)CC1=O,> 200,> 200 µM,
CSc1nc2c(=S)[nH]c(=S)[nH]c2s1,> 105,> 105 µM,
CC1=CN2C(c3ccc(Cl)cc3)=NON(c3ccc(C)cn3)C2C=C1 (stereo not given),> 10.2,> 10.2 µM,
COC(=O)[C@@]1(C)CCC[C@]2(C)C3(O)C(C)C(=O)O[C@H](c4ccoc4)C3C(OC(C)=O)C21O (stereo not given in full),> 200,> 200 µM,
C=C1C(=O)O[C@H]2CC(C)C3C(O)CC(O)[C@@]3(C)C[C@H]12 (stereo not given in full),> 933,6.03 µM,
O=c1[nH]c2ccccc2c(=O)n1CCCN1CCN(c2cccc(Cl)c2)CC1,> 200,50.1 µM,
